{
  "source": "ChEMBL document CHEMBL5120797",
  "about": "“Principles of Kinase Allosteric Inhibition and Pocket Validation” (J Med Chem, 2022)",
  "key": {"[1]": {"biological_target": "Serine/threonine-protein kinase WNK1 (Homo sapiens, UniProt Q9H4A3)", "sequence (Q9H4A3 whole entry, the tested form may be a part)": "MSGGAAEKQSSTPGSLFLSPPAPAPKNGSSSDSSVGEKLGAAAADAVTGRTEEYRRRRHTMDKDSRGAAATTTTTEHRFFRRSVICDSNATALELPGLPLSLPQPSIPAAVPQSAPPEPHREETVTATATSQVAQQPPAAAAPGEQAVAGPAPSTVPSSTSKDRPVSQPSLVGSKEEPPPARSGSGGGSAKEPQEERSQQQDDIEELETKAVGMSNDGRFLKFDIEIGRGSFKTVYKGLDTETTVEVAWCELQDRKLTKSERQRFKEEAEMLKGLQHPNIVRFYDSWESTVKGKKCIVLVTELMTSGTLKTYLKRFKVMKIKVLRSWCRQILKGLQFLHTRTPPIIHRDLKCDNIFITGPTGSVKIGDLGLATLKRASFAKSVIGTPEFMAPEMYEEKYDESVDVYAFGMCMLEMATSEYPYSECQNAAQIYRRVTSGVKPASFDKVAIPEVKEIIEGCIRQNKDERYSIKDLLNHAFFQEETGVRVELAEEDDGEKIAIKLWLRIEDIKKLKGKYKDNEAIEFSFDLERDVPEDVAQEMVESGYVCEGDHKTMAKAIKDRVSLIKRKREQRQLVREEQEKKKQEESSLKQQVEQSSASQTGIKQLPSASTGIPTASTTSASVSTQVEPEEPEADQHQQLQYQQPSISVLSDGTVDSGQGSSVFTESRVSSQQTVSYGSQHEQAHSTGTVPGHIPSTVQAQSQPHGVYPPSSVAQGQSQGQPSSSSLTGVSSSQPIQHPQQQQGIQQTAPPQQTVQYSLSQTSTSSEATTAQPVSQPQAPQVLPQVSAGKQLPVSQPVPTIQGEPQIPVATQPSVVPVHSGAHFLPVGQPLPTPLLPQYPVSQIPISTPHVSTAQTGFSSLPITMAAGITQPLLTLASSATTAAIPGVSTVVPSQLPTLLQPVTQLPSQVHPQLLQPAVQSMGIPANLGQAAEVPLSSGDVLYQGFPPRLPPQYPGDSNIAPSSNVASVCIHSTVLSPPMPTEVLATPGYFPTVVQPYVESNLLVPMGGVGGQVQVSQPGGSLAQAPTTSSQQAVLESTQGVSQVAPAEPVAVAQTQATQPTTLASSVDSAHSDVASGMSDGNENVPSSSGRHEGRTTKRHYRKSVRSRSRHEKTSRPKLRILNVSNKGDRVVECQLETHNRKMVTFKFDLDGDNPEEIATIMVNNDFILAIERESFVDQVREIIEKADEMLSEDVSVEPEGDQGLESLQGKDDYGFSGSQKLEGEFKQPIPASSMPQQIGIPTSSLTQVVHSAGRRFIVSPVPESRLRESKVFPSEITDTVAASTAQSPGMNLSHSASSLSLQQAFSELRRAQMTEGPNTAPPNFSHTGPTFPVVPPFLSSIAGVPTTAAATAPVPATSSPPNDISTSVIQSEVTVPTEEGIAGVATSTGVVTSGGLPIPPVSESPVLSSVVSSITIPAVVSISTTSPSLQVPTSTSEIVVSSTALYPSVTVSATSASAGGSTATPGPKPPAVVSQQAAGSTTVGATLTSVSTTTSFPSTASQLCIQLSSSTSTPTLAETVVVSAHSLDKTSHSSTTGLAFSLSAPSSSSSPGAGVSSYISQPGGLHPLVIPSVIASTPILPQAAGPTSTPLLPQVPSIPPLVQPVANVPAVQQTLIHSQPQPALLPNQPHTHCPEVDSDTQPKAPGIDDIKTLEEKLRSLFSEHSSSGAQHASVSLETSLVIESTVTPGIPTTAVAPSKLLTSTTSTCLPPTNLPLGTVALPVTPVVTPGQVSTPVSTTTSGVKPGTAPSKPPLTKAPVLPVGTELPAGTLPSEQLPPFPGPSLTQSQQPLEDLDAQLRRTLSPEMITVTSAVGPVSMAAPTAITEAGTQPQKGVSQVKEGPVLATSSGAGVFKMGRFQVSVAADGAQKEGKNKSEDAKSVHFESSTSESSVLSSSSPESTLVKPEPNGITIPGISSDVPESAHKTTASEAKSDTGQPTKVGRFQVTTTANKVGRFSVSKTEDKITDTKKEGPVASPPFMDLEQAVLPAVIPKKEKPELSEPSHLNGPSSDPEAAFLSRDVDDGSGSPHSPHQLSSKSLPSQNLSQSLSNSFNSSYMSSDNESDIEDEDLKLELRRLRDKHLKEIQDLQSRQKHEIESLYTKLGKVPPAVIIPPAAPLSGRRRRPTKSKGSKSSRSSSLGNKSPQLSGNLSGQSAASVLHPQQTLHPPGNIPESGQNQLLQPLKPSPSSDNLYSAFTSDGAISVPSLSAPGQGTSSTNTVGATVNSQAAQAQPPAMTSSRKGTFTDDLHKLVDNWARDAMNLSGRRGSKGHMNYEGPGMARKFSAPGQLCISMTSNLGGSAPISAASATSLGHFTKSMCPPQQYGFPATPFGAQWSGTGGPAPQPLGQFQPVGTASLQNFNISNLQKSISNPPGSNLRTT", "assay": "Inhibition of human WNK1 (198 to 401 residues) using biotinylated STK3 as substrate incubated for 2 hrs by HTRF assay"}, "[2]": {"biological_target": "T1, Tyrosine-protein kinase ITK/TSK (Homo sapiens, UniProt Q08881)", "T1 sequence (Q08881 whole entry)": "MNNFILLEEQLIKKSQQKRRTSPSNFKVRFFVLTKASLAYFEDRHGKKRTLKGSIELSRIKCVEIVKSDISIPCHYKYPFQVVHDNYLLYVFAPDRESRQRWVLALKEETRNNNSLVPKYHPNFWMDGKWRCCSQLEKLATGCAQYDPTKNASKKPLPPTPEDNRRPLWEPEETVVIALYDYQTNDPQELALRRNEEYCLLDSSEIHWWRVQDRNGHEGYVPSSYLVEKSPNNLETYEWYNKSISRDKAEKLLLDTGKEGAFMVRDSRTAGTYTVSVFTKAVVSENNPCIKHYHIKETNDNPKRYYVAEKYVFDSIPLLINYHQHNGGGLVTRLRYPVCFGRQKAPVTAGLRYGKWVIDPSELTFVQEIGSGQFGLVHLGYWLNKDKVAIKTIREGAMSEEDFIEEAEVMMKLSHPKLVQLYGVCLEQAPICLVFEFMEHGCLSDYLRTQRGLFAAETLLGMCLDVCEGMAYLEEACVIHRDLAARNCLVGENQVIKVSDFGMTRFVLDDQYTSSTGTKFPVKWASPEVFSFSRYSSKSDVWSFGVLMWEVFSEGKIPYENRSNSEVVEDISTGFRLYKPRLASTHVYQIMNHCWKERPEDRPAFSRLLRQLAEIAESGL", "assay": "Inhibition of human N-terminal His6 tagged ITK (354 to 620 residues) expressed in Sf9 insect cells incubated for 30 mins by time-resolved fluorescence assay"}, "[3]": {"assay": "Binding affinity to MEK1/2 (unknown origin) assessed as dissociation constant", "design": "species or system Homo sapiens"}, "[4]": {"biological_target": "Hepatocyte growth factor receptor (Homo sapiens, UniProt P08581)", "sequence (P08581 whole entry)": "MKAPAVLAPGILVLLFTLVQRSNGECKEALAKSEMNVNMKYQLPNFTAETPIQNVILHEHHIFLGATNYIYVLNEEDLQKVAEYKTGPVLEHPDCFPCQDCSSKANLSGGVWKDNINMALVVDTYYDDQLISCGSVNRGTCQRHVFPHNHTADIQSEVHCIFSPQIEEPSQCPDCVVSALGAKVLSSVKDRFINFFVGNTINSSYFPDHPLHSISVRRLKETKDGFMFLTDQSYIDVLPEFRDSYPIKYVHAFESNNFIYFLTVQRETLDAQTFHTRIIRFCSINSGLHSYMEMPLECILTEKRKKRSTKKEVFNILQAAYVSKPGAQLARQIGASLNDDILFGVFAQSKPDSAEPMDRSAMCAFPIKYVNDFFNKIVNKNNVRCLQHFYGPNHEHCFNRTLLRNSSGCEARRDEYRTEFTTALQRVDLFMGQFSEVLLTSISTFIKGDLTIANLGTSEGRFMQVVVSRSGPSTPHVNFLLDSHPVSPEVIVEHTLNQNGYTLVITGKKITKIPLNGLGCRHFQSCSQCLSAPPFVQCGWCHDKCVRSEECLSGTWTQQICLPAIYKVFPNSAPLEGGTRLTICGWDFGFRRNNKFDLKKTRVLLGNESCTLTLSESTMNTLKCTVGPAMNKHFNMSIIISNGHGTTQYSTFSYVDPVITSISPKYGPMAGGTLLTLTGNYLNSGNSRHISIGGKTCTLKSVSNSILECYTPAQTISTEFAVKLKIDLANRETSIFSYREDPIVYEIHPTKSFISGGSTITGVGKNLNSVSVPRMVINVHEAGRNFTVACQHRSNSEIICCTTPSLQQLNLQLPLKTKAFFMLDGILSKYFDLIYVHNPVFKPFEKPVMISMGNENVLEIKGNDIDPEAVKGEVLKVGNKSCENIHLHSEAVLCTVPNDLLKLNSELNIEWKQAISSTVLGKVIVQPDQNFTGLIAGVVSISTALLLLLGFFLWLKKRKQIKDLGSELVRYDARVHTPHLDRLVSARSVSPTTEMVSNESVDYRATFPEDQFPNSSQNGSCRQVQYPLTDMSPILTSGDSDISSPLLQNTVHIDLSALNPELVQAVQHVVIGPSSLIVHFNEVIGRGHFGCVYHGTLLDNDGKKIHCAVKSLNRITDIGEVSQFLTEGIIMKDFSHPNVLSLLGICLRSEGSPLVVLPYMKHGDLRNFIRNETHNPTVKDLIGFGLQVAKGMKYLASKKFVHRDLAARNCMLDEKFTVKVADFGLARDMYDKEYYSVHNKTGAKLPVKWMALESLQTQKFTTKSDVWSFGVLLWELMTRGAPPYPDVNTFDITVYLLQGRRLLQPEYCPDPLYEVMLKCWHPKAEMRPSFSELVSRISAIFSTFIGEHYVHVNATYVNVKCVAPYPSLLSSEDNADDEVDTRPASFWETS", "assay": "Inhibition of c-Met (unknown origin)"}, "[5]": {"assay": "Inhibition of MEK1/2 (unknown origin)", "design": "species or system Homo sapiens"}},
  "data": [
    {"molecule": "CNc1nc(-c2ccc3c(c2)CCN3C(=O)c2ccccc2OCc2ccc(Cl)cc2)cs1", "values": [
      {"measurement": "IC50", "setting": "[1]", "value": 120, "unit": "nM"}
    ]},
    {"molecule": "CC(C)Oc1ccc2cccc(-n3cc(NC(N)=O)c(C(N)=O)n3)c2c1", "values": [
      {"measurement": "IC50", "setting": "[2]", "value": 30, "unit": "nM"}
    ]},
    {"molecule": "Cn1cnc2c(F)c(Nc3ccc(Br)cc3Cl)c(C(=O)NOCCO)cc21", "note": "[SELUMETINIB]", "values": [
      {"measurement": "Kd", "setting": "[3]", "value": 14, "unit": "nM"}
    ]},
    {"molecule": "O=C1NC(=O)[C@@H](c2cn3c4c(cccc24)CCC3)[C@@H]1c1c[nH]c2ccccc12", "note": "[TIVANTINIB]", "values": [
      {"measurement": "IC50", "setting": "[4]", "value": 360, "unit": "nM"}
    ]},
    {"molecule": "CC(=O)Nc1cccc(-n2c(=O)n(C3CC3)c(=O)c3c(Nc4ccc(I)cc4F)n(C)c(=O)c(C)c32)c1", "note": "[TRAMETINIB]", "values": [
      {"measurement": "IC50", "setting": "[5]", "value": 2, "unit": "nM"},
      {"measurement": "Kd", "setting": "[3]", "value": 3, "unit": "nM"}
    ]}
  ]
}
